Measurements reported in patent US20050288247A1, “Inducible inactivation of synaptic transmission” (Cold Spring Harbor Laboratory, priority 2004, published 2005).

Legend:
[1] = system: synaptic transmission of cortical neurons in cultured brain slices; assay: Evoked EPSCs in cultured brain slices infected with adenovirus-based VAMP MIST construct; type: cell-based
From the text: We first tested the VAMP MIST construct in cultured brain slices. The adenovirus-based VAMP MIST construct was used to infect cortical neurons in cultured brain slices. Synaptic transmission was evoked with extracellular stimulation.

[2] = system: synaptic transmission in acute cortical brain slices; assay: Whole cell EPSC measurements in layer 2 pyramidal neurons in acute brain slices; type: cell-based, mice
From the text: We further characterized CID-dependent inactivation of synaptic transmission using whole cell measurements of EPSC in layer (L) 2 pyramidal neurons in acute brain slices. MIST constructs were introduced into L 3 cells in vivo using in utero viral vector mediated gene delivery (VAMP/Syb MIST) or electroporation (Sph-StxTM MIST). Synaptic transmission was evoked with an extracellular stimulation electrode placed in a band of transfected/infected neurons, below (within 200 μm) the recording pipette.
Cortical brain slices (300 μm thick) were prepared from young mice (postnatal day 9-14) using a vibrating-blade microtome (VT1000S, Leica Microsystems). Chilled cutting solution contained 110 mM choline chloride, 25 mM NaHCO3, 25 mM D-glucose, 11.6 mM sodium ascorbate, 7 mM MgSO4, 3.1 mM sodium pyruvate, 2.5 mM KCl, 1.25 mM NaH2PO4, and 0.5 mM CaCl2. Slices were then transferred to artificial cerebrospinal fluid (“ACSF”) containing 127 mM NaCl, 25 mM NaHCO3, 25 mM D-glucose, 2.5 mM KCl, 2 mM MgCl2,1 mM CaCl2, and 1.25 mM NaH2PO4, aerated with 95% O2/5% CO2. Slices in ACSF were first incubated at 34° C. for 0.5 hr, then maintained at room temperature prior to use. For recordings, ACSF contained 4 mM MgCl2, 4 mM CaCl2 and […] CPP.
Neurons were visualized with infrared differential interference contrast optics, and patched using borosilicate electrodes (resistances, 4-7 MΩ). Access resistances were in the range 10-30 MΩ. Intracellular solution contained 120 mM CsMeSO3, 20 mM CsCl, 4 mM NaCl, 10 mM HEPES, 10 mM BAPTA, 4 mM Mg2ATP, and 0.3 mM Na2GTP, 14 mM sodium phosphocreatine, 3 mM ascorbate, and 0.1 Alexa-594 (Molecular Probes); pH was adjusted to 7.25 with CsOH. Excitatory currents were measured at a holding potential of −65 mV, close to reversal for fast inhibition. MIST-expressing neurons were stimulated with tungsten bipolar electrode in the middle of transfected region, and monosynaptic responses were recorded from cells within […]. Responses were amplified (Multiclamp, Axon Instruments), filtered at 1 kHz, and digitized at 10 kHz. […]

**Q.** What does the source list for `CC[C@H](C(=O)N1CCCC[C@H]1C(=O)O[C@H](CCc1ccc(OC)c(OC)c1)c1cccc(OCC(=O)NCC(CNC(=O)COc2cccc([C@@H](CCc3ccc(OC)c(OC)c3)OC(=O)[C@@H]3CCCCN3C(=O)[C@@H](CC)c3cc(OC)c(OC)c(OC)c3)c2)CN(C)C)c1)c1cc(OC)c(OC)c(OC)c1` [AP20187]?
**A.** amplitudes of monosynaptic EPSC and network discharge ([1]; 20 nM AP20187 in DMSO added to the bath, VAMP MIST infected slices): rapid decrease; amplitude of monosynaptic EPSCs ([2]; bath application 100 nM AP20187, VAMP/Syb MIST): rapid decrease

**Q.** For `CC[C@H](C(=O)N1CCCCC1C(=O)O[C@H](CCc1ccc(OC)c(OC)c1)c1cccc(OCC(=O)NCCCN(C)C)c1)c1cc(OC)c(OC)c(OC)c1` (some centres unmarked) [AP21998], which “recovery of monosynaptic EPSC and network discharge” value ([1]; 200 nM AP21998 reverser after homodimerizer) is on record?
**A.** rapid recovery

**Q.** What about the “recovery of synaptic response with reverser” value ([2]; excess of monomeric reverser, 5 μM AP21998) of the same compound?
**A.** rapid partial recovery

**Q.** For AP21967, which “amplitude of monosynaptic EPSCs” value ([2]; bath application 500 nM AP21967, Sph-StxTM MIST) is on record?
**A.** rapid decrease
